This passage reports IC50 results from PMC4503349 (PLoS ONE, 2015).

Where a name gives a salt, the structure may show the parent alone.

The target in experiment [1] is T1, calcineurin (CaN; CnAα catalytic subunit) (Homo sapiens, UniProt Q08209).
T1 construct: gene PPP3CA; recombinant human CaN, comprising CnAα and CnB subunits; with calcineurin B (CnB); calmodulin
Put plainly: malachite green phosphatase assay with RII phosphopeptide, absorbance dose-response, calmodulin present. The class given is biochemical.

Experiment [2] concerns the target T1, calcineurin (CaN; CnAα catalytic subunit). Put plainly: malachite green phosphatase assay with RII phosphopeptide. In kind it is biochemical.

In the case of `Fc1ccc(C(c2ccc(F)cc2)N2CCN(C/C=C/c3ccccc3)CC2)cc1` [LDN-0013905, flunarizine hydrochloride], the IC50 – broadly, the concentration that gives 50% inhibition – in experiment [1] (read-out: IC50) was 106 µM.

`CN1CCN(CCCN2c3ccccc3Sc3ccc(C(F)(F)F)cc32)CC1` [LDN-0013906, tri-fluoperazine dihydrochloride]: the IC50 in experiment [1] worked out at 4.5 µM.

On to `O=C(O)[C@@H]1[C@H](C(=O)O)[C@H]2CC[C@@H]1O2` [endothall], for which the concentration for half-maximal inhibition (IC50) in experiment [2] is 12.6 µM.
